Results from patent publication US20170342136A1, “MONOCLONAL ANTIBODY AGAINST MURAMYL PEPTIDES IN PREVENTION AND TREATMENT OF IMMUNE-MEDIATED DISEASES” (Agency for Science, Technology and Research, priority 2015, published 2017).

Legend:
[1] = system: Collagen Induced Arthritis (CIA) mouse model; test: Collagen Induced Arthritis (CIA) mouse model with implanted osmotic pump releasing MDP; format: in vivo, DBA/1J mice
Procedure: (A) illustrates the subcutaneous implantation of an osmotic pump loaded with 200 µl of 5 mg/ml MDP and released at a rate of 0.25μ1/hr onto the back of a mouse.
DBA/1J mice were induced to develop arthritis by immunization with an emulsion of complete Freund's adjuvant and type II collagen, and each mouse also carried an implanted pump as described in FIG. 5 that releases either PBS or MDP at 0.25 μl/hr.

[2] = system: Escherichia coli; test: MPs in culture supernatant with or without amoxicillin, competitive ELISA using 2E7; format: cell-based; details: 40 μg per ml amoxicillin added at OD600=1.5
Procedure: (§1) The standard curve was used to determine the peptidoglycan concentration in a sample. […] Both bacteria were grown to OD600=1.5. Each culture was divided into two, and one treated with 40 μg/ml amoxicillin (Amx) and the other untreated. Aliquots were collected at the indicated times and the amount of MPs in the supernatant was determined by competitive ELISA. […] After removing unbound antibodies by PBS washes, the cells were incubated with a FITC-labeled anti-mouse IgG Ab before fluorescence microscopic examination.
(§2) For this test, Gram-positive bacterium Staphylococcus aureus, which has a thick peptidoglycan layer, and Gram-negative Escherichia coli, which has a thin peptidoglycan layer, were selected and grown in the presence or absence of amoxicillin. The culture was grown to a density of OD600=1.5 and then divided into two equal aliquots. To one aliquot, amoxicillin was added to a final concentration of 40 μg per ml, and to the other aliquot, no drug was added. Both cultures were allowed to continue to grow. Aliquots of cultures were collected at timed intervals and cells were removed by centrifugation. The amount of MPs in the supernatant was determined by competitive ELISA using 2E7.

[3] = system: Staphylococcus aureus; test: as above; format: cell-based; details: 40 μg per ml amoxicillin added at OD600=1.5
Procedure: as §1, §2

[4] = Blood MP level after oral amoxicillin, competitive ELISA using 2E7; format: in vivo, mice; details: 100 mg/kg oral at 12-h intervals, 4 h after each feeding
Procedure: Amoxicillin was administered orally to 50 mice at 12-h intervals and three mice were sacrificed every 4 h to collect blood for peptidoglycan quantification by ELISA. […] Serial blood samples were taken. Time for blood draw and IV injection are indicated.
The MP level in serum was determined by competitive ELISA using an example of the antibody of the present disclosure, i.e. 2E7.

Row | Structure (SMILES) | clinical paw scores ([1]; increase in MDP concentration, time dependent, n=4) | development of rheumatoid arthritis ([1]; pump releasing MDP at 0.25 μl/hr vs PBS) | molecules in culture medium that inhibit 2E7 binding to MDP [2] | molecules in culture medium that inhibit 2E7 binding to MDP [3] | increase in the blood MP level [4]
1 | CC(=O)N[C@@H]1[C@@H](O[C@H](C)C(=O)N[C@@H](C)C(=O)N[C@H](CCC(=O)O)C(N)=O)[C@H](O)[C@@H](CO)O[C@H]1O [MDP] | increased clinical paw scores | promoted the development of rheumatoid arthritis | – | – | –
2 | CC1(C)S[C@@H]2[C@H](NC(=O)[C@H](N)c3ccc(O)cc3)C(=O)N2[C@H]1C(=O)O [amoxicillin] | – | – | sharp increase | sharp increase | 20-60%
